The target of one test is KIF18A (Homo sapiens (Human), UniProt Q8NI77). Briefly: KIF18A enzymatic activity inhibition, ADP-Glo kit. The test is classed as biochemical. Particulars: 4 nM KIF18A, 30 μM ATP. The method, boiled down:
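KIF18A (1467) at 4 nM was preincubated with compound for 20 min at 37 °C in 15 mM Tris pH 7.5, 10 mM MgCl2, 0.01% Pluronic F-68. The reaction was started with 30 μM ATP and ran 15 min at room temperature.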
For orientation: ADP-Glo first removes unused ATP, then detects ADP through luciferase.

Test [1] concerns the target cytochrome oxidase P450 1A2 (Homo sapiens (Human), UniProt P05177). Put plainly: Inhibition of cytochrome oxidase P450 1A2. The test is classed as in vitro ADME. Particulars: liver microsomes, CYP1A2. For orientation: Liver microsomes are vesicles of endoplasmic reticulum, rich in cytochrome P450 enzymes.
Test [2] deals with Human colon cancer HT-29 cells. Put plainly: Pharmacodynamic experiment in mice, subcutaneous HT-29 tumor. The following applies: 20 mpk BID intragastric, after 16 days of administration, HT-29 subcutaneous tumor in mice. Format: in vivo. As to the method:
Human colon cancer HT-29 cells were cultured in monolayer in vitro under the following conditions: DMEM medium containing 10% fetal bovine serum and 1% penicillin and streptomycin, at 37° C. with 5% CO2. The cells were digested with trypsin three times a week for passaging. When the saturation degree of the cells was 80%-90%, the cells were collected, counted, and inoculated, 0.1 mL (1×10^6 cells) of HT-29 cells were subcutaneously inoculated on the tight back of each mouse. On day 11 after inoculation of the cells, the mean tumor volume reached 325 mm^3. The mice were randomly grouped for administration (the animals were divided into an administration group and a control group, with 6 animals in each group). The day of grouping was defined as d0, and intragastric administration was started on d1. The administration was performed twice daily at an administration volume of 10 mL/kg. Vehicle control was adminstered to the control group. The tumor volume was measured 2-3 times per week, and meanwhile, the mice were weighed and the data were recorded; daily observations were made to record the body surface signs of the mice. After the experiment was completed, the tumors were removed, weighed, and photographed for recording.
Calculation formula for tumor volume: […]

The target in another test is hERG potassium channel (Homo sapiens (Human), UniProt Q12809). Put plainly: hERG whole-cell patch clamp (Qpatch) in HEK293 cells. The test is classed as cell-based. Particulars: top concentration 30 μM. On the procedure: HEK293 cells were cultured in a DMEM medium containing 10% fetal bovine serum and 0.8 mg/mL G418 at 37° C. with 5% CO2. The cells were digested by TrypLE™ Express and then centrifuged. The cell density was adjusted to 2×10^6 cells/ml. The cells were then gently mixed for 15-20 min using a shaker equilibrated at room temperature, and subjected to patch clamping on a machine. The medium of the prepared cells was replaced with extracellular fluid. The intracellular fluid and the extracellular fluid were taken from the fluid pool, and added to the intracellular fluid pool and the cell and test substance pool of the QPlate chip, respectively. The voltage stimulation of the whole-cell hERG potassium current was recorded by the whole-cell patch clamp, and the experimental data was collected and stored by Qpatch. The test compound was 3-fold diluted starting from 30 μM to obtain 6 concentration points, each for two administrations over a period of at least 5 min. The current detected in compound-free extracellular fluid for each cell served as its own control group, and the detection was repeated at least twice independently using two cells per concentration. All electrophysiological experiments were performed at […].
Sequence of hERG potassium channel (Q12809 whole entry): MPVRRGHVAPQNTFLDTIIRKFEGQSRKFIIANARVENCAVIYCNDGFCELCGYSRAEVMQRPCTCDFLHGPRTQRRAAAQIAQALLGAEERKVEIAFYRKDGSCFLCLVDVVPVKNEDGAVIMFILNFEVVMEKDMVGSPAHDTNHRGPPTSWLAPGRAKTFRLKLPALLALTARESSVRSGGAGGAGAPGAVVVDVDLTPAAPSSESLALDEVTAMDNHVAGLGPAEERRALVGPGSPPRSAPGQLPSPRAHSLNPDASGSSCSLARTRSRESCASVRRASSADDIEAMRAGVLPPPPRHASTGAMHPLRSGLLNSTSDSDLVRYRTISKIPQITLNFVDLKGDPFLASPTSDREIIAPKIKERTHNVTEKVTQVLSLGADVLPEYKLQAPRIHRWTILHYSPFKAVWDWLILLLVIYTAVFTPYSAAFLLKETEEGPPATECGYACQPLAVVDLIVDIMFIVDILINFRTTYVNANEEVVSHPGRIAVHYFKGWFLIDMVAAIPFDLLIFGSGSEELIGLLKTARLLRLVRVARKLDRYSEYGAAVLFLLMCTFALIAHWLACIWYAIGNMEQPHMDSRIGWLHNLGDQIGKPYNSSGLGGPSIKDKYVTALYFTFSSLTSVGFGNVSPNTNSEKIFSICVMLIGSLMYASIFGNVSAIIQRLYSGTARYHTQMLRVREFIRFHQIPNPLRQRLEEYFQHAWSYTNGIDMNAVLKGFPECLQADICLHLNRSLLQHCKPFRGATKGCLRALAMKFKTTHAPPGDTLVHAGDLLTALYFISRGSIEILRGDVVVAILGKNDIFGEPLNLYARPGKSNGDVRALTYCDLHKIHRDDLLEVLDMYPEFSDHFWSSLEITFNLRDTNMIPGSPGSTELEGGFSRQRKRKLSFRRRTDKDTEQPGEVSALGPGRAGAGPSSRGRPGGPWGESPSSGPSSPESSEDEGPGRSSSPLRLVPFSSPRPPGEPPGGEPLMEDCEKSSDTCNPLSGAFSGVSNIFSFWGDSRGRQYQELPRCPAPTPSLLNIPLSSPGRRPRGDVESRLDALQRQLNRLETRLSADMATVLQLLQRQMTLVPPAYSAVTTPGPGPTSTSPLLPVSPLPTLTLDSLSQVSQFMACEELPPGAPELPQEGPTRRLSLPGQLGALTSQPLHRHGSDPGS
For data analysis, the current after the action of each drug concentration and the current of the blank control were standardize
and then the inhibition rate corresponding to each drug concentration was calculated
The mean and standard error were calculated for each concentration, and the half maximal inhibitory concentration of each compound was calculated:
The dose-dependent effect was subjected to non-linear fitting using the above equation, where Y represents the inhibition rate, C represents the concentration of the test substance, IC50 is the half maximal inhibitory concentration, and HillSlope represents the Hill coefficient. Curve fitting and calculation of IC50 were performed using the Graphpad software.
(The hERG channel carries a current that helps repolarise heart muscle cells.)

Each structure is given as a SMILES string.

By IC50 is commonly meant the point on the concentration scale where inhibition reaches its midpoint. A higher IC50 goes with lower potency.

Sequence of cytochrome oxidase P450 1A2 (P05177 whole entry): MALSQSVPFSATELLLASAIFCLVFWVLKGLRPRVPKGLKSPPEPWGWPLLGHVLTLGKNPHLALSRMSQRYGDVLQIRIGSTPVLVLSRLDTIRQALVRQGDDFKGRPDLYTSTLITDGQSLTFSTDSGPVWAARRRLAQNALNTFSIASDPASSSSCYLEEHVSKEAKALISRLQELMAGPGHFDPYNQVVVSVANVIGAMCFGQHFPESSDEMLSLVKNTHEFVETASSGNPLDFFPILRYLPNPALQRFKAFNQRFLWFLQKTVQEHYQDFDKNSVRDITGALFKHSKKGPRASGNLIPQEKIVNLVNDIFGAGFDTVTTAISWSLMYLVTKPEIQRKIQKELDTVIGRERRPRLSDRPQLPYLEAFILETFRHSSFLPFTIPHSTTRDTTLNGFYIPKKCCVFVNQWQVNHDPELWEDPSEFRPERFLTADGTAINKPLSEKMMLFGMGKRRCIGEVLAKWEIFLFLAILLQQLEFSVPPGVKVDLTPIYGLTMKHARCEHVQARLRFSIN
Sequence of KIF18A (Q8NI77 1-467): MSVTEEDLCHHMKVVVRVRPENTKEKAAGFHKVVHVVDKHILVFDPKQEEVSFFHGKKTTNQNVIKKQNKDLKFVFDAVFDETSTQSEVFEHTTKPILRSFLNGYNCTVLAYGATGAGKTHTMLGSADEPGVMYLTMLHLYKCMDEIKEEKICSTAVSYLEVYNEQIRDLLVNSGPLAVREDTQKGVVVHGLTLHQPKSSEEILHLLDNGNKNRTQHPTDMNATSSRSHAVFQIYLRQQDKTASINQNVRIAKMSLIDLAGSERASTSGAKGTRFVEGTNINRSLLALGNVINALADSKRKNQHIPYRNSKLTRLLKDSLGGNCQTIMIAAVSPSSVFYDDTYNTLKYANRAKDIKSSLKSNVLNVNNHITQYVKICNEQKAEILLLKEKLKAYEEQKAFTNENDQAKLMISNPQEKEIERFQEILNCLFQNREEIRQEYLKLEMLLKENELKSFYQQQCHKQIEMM

On KIF18A, `O=C(Nc1cc2cc[nH]c2c(N2CCC(F)(F)CC2)n1)c1ccc(NS(=O)(=O)CCO)cc1N1CCC2(CC1)CC2` [Compound 22] came in with a concentration for half-maximal inhibition (IC50) of 26.4 nM.

In test [1], `O=C(Nc1cn2c(F)cnc2c(N2CCC(F)(F)CC2)n1)c1ccc(NS(=O)(=O)CCO)cc1N1CCC2(CC1)CC2` [Compound 34] had an IC50 above 10000 nM. For the same compound, the TGI in test [2] is 105.10%.

For `O=C(Nc1cn2ccnc2c(N2CCC(F)(F)CC2)n1)c1ccc(NS(=O)(=O)CCO)cc1N1CC2CCC(C2)C1` [Compound 17], the IC50 at KIF18A was determined as 16.4 nM.

In turn, `O=C(Nc1cc2ccsc2c(N2CCC(F)(F)CC2)n1)c1ccc(NS(=O)(=O)CCO)cc1N1CCC2(CC1)CC2` [Compound 15] registered a half-inhibitory concentration (IC50) on KIF18A of 126 nM.

For `CS(=O)(=O)Nc1ccc(C(=O)Nc2cn3ccnc3c(N3CCC(F)(F)CC3)n2)c(N2CC3CCC(C3)C2)c1` [Compound 19], the IC50 in test [1] was above 10000 nM; on hERG potassium channel, above 30000 nM. Further, the TGI in test [2] was 111.82%.

For `Cc1cc(NC(=O)c2ccc(NS(=O)(=O)CCO)cc2N2CC3CCC(C3)C2)nc(N2CCC(F)(F)CC2)n1` [Compound 3], the IC50 against KIF18A stood at 19.8 nM.

In turn, `O=C(Nc1cc2c(c(N3CCC(F)(F)CC3)n1)COC2)c1ccc(NS(=O)(=O)CCO)cc1N1CCC2(CC1)CC2` [Compound 14] came in with an IC50 against KIF18A of 28.7 nM.

In turn, `O=C(Nc1cn2ncnc2c(N2CCC(F)(F)CC2)n1)c1ccc(NS(=O)(=O)CCO)cc1N1CCC2(CC1)CC2` [Compound 23] returned a concentration for half-maximal inhibition (IC50) against KIF18A of 3.6 nM.

Take `O=C(Nc1cc2ccccc2c(N2CCC(F)(F)CC2)n1)c1ccc(NS(=O)(=O)CCO)cc1N1CCC2(CC1)CC2` [Compound 6]: the 50% inhibitory concentration (IC50) in test [1] is above 10000 nM; against hERG potassium channel, above 30000 nM; against KIF18A, 95.6 nM.

Take `O=C(Nc1cc2cccnc2c(N2CCC(F)(F)CC2)n1)c1ccc(NS(=O)(=O)CCO)cc1N1CCC2(CC1)CC2` [Compound 21]: the results for the IC50 (in test [1]; against hERG potassium channel) were above 10000 nM and above 30000 nM, respectively.

For `CS(=O)(=O)Nc1ccc(C(=O)Nc2cc3cc[nH]c3c(N3CCC(F)(F)CC3)n2)c(N2CCC3(CC2)CC3)c1` [Compound 47], the IC50 in test [1] was above 10000 nM. In test [2], the TGI was determined as 108.84%.

Regarding `CS(=O)(=O)Nc1ccc(C(=O)Nc2cn3ccnc3c(N3CCC(F)(F)CC3)n2)c(N2CCC3(CC2)CC3)c1` [Compound 10], the IC50 against KIF18A was 25.7 nM.

In the case of `O=C(Nc1cn2ccnc2c(N2CCC(F)(F)CC2)n1)c1ccc(NS(=O)(=O)CCO)cc1N1CCC2(CC1)CC2` [Compound 8], the IC50 in test [1] was above 10000 nM; on hERG potassium channel it was above 30000 nM; at KIF18A, 21.3 nM.

For `O=C(Nc1cn2cnnc2c(N2CCC(F)(F)CC2)n1)c1ccc(NS(=O)(=O)CCO)cc1N1CCC2(CC1)CC2` [Compound 24], on KIF18A, the IC50 came out at 3.7 nM.

The values above are taken from patent US20250382298A1, “NITROGEN-CONTAINING COMPOUND AND USE THEREOF” (SUZHOU GENHOUSE BIO CO., LTD., priority 2022, published 2025).
